The results in this text go back to ChEMBL document CHEMBL3991601, “The target landscape of clinical kinase drugs” (Science, 2017).

Structures are written as SMILES. Active and inactive are the calls of the source. Rule as the data show it, for most assays here: actives have a measured Kd and inactives only a lower limit. Where only a bound is given, the exact number is not on record here.

Among the targets are Aurora kinase B (Homo sapiens, UniProt Q96GD4); LIM domain kinase 2 (Homo sapiens, UniProt P53671); Actin-related protein 2 (Homo sapiens, UniProt P61160).
The target in assay [1] is Calcium/calmodulin-dependent protein kinase type II subunit delta (Homo sapiens, UniProt Q13557).
Assay [2] deals with 26S proteasome regulatory subunit 6B (Homo sapiens, UniProt P43686).
Chain of 26S proteasome regulatory subunit 6B (P43686 whole entry): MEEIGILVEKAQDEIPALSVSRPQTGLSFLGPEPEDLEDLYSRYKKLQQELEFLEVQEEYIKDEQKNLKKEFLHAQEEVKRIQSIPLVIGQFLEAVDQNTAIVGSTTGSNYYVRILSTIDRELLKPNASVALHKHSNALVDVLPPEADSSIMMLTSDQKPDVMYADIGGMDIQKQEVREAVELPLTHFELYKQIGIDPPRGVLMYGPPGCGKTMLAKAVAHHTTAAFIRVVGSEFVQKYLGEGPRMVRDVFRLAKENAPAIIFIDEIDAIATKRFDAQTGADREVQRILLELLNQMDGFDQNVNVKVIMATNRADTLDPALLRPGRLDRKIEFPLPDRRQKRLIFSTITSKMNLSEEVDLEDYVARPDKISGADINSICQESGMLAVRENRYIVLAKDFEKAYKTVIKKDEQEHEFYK
The target of assay [3] is GTP-binding nuclear protein Ran (Homo sapiens, UniProt P62826).
Assay [4] has as its target Ribosomal protein S6 kinase alpha-1 (Homo sapiens, UniProt Q15418).
Assay [5] addresses Tyrosine-protein kinase ABL1 (Homo sapiens, UniProt P00519).
In assay [6] the target is T1, Ferrochelatase, mitochondrial (Homo sapiens, UniProt P22830).
T1 sequence (P22830 whole entry): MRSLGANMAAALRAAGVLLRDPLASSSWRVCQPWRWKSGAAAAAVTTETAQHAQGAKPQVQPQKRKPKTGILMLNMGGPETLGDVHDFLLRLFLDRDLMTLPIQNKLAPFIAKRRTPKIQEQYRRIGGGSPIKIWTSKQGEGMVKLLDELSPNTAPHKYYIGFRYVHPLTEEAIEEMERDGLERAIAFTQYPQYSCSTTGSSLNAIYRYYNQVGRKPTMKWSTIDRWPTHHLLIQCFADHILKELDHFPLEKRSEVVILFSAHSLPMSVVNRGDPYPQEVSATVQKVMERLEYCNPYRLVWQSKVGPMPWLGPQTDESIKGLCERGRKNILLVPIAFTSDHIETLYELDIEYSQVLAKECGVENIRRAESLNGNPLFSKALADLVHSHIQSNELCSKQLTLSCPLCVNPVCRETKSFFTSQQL

Assay [7] addresses Serine/threonine-protein kinase MRCK beta (Homo sapiens, UniProt Q9Y5S2).
Assay [8] deals with Tyrosine-protein kinase JAK1 (Homo sapiens, UniProt P23458).
Chain of Tyrosine-protein kinase JAK1 (P23458 whole entry): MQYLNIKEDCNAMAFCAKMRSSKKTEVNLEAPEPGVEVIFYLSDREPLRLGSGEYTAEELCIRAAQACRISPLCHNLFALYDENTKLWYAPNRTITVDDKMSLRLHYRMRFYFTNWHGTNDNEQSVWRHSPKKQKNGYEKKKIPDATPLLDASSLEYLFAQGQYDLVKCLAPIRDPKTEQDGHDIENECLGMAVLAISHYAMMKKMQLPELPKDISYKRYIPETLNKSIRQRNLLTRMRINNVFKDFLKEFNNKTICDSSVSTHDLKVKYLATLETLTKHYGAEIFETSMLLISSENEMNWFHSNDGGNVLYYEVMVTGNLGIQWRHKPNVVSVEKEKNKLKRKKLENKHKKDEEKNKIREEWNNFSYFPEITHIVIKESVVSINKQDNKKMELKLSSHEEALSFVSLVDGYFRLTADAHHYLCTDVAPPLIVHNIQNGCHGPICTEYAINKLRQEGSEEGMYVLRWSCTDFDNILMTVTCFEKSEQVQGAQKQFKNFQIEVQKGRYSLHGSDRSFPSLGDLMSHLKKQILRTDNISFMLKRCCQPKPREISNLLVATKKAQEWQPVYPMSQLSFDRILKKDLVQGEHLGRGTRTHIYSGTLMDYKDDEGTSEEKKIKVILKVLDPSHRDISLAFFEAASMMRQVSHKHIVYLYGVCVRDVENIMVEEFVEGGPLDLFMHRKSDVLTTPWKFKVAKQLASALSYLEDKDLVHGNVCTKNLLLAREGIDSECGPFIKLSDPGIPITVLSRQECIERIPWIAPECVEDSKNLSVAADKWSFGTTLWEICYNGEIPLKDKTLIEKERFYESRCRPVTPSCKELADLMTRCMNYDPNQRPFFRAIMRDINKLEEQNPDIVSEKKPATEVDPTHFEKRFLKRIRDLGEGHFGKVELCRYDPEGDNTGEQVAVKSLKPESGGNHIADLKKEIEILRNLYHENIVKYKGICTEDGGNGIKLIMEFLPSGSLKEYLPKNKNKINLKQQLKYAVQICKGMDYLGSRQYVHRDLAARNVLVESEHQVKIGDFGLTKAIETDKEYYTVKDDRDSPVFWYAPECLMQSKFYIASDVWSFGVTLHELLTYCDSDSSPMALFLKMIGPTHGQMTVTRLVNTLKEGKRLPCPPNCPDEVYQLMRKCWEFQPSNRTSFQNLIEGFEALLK
In assay [9] the target is Serine/threonine-protein kinase N1 (Homo sapiens, UniProt Q16512).
Chain of Serine/threonine-protein kinase N1 (Q16512 whole entry): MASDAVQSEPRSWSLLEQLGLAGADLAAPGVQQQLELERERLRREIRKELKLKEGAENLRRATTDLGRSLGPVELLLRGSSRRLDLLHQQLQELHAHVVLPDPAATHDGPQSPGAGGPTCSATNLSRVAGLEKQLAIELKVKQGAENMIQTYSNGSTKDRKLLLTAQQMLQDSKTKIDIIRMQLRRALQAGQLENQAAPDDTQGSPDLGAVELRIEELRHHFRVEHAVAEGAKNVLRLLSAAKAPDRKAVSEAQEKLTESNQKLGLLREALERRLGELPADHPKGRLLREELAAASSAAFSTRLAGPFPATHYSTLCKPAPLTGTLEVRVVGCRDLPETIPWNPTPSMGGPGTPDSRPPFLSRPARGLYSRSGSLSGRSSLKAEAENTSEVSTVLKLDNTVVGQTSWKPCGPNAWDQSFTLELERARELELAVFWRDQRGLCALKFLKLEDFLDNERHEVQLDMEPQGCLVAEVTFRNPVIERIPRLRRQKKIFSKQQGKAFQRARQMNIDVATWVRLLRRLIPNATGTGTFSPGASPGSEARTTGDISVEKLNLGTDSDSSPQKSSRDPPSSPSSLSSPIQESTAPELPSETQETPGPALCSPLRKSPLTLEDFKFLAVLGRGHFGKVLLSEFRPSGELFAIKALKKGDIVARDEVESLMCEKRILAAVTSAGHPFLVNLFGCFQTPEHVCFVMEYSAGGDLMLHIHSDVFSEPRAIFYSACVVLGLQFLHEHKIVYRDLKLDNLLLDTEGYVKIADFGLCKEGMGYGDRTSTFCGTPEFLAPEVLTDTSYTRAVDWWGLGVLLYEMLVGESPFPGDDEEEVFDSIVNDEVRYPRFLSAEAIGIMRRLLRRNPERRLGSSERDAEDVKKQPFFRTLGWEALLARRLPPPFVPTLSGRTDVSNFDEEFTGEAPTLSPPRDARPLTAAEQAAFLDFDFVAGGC
For assay [10], the target named is T2, Serine/threonine-protein kinase PLK4 (Homo sapiens, UniProt O00444).
T2 sequence (O00444 whole entry): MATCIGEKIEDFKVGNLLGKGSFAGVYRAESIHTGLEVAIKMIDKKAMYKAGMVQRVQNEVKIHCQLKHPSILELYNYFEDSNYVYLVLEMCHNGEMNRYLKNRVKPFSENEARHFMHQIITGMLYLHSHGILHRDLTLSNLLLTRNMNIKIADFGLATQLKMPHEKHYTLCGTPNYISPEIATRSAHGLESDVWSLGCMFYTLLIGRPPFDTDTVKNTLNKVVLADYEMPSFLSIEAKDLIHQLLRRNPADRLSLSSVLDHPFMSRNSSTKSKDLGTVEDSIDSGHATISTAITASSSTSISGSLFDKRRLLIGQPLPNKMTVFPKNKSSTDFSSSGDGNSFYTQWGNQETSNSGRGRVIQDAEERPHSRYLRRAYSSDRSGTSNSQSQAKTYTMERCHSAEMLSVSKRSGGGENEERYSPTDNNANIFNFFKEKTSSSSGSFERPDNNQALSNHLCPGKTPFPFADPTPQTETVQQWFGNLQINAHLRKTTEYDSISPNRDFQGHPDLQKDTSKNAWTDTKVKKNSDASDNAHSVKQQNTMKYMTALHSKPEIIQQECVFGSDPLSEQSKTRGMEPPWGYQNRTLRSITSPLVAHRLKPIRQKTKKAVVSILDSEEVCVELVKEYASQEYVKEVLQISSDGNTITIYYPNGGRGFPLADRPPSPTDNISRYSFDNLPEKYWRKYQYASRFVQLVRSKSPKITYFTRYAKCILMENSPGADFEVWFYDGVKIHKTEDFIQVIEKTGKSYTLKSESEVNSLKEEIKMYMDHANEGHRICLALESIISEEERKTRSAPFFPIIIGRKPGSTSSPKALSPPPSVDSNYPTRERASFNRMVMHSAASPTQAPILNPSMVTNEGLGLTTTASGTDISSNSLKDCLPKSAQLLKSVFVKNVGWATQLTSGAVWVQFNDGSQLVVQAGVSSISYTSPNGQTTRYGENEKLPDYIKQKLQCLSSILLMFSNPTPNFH

Assay [11] deals with Maternal embryonic leucine zipper kinase (Homo sapiens, UniProt Q14680).
Assay [12] concerns the target AP2-associated protein kinase 1 (Homo sapiens, UniProt Q2M2I8).
For assay [13], the target named is Mitogen-activated protein kinase 8 (Homo sapiens, UniProt P45983).
In assay [14] the target is Guanine nucleotide-binding protein G(i) subunit alpha-2 (Homo sapiens, UniProt P04899).
Chain of Guanine nucleotide-binding protein G(i) subunit alpha-2 (P04899 whole entry): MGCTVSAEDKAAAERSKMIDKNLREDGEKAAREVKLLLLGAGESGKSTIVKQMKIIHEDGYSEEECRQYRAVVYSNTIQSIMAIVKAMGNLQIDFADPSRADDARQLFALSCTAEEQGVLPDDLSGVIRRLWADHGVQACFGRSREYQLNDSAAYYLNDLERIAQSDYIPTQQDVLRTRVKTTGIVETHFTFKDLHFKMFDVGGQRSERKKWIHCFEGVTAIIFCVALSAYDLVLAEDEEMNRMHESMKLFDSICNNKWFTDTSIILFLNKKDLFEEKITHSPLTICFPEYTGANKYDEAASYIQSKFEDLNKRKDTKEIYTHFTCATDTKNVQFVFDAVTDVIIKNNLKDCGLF
Also: in the data inactive means no Kd found up to 30 µM.

Chain of Ribosomal protein S6 kinase alpha-1 (Q15418 whole entry): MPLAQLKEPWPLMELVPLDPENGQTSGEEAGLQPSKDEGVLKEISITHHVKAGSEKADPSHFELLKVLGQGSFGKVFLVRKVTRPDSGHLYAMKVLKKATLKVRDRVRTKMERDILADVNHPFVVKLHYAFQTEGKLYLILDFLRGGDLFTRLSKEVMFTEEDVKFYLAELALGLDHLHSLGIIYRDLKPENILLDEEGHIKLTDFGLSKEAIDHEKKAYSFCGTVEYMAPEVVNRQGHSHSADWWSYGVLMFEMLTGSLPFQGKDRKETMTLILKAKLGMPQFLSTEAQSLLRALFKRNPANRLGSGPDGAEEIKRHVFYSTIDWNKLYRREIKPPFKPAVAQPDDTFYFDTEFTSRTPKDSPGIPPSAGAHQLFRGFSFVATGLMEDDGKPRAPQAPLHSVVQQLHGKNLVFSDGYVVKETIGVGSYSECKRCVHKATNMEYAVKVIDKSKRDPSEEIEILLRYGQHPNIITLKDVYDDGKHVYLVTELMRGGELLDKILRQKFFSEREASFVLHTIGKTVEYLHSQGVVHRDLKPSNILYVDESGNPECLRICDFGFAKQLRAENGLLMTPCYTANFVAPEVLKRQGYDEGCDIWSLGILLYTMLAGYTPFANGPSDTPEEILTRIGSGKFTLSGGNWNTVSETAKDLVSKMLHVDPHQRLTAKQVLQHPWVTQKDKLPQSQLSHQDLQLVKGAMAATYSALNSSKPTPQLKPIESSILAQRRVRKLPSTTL
Chain of Aurora kinase B (Q96GD4 whole entry, the tested form may be a part): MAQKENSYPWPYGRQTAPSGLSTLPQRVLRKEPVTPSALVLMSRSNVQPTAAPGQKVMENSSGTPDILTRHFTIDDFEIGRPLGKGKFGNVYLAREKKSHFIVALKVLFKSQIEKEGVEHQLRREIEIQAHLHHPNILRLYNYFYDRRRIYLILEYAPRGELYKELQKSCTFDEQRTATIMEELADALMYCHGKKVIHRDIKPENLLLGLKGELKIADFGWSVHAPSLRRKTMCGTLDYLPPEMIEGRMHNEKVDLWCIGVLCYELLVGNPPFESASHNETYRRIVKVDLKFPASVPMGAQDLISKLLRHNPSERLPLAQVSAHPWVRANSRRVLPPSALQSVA
Chain of Tyrosine-protein kinase ABL1 (P00519 whole entry): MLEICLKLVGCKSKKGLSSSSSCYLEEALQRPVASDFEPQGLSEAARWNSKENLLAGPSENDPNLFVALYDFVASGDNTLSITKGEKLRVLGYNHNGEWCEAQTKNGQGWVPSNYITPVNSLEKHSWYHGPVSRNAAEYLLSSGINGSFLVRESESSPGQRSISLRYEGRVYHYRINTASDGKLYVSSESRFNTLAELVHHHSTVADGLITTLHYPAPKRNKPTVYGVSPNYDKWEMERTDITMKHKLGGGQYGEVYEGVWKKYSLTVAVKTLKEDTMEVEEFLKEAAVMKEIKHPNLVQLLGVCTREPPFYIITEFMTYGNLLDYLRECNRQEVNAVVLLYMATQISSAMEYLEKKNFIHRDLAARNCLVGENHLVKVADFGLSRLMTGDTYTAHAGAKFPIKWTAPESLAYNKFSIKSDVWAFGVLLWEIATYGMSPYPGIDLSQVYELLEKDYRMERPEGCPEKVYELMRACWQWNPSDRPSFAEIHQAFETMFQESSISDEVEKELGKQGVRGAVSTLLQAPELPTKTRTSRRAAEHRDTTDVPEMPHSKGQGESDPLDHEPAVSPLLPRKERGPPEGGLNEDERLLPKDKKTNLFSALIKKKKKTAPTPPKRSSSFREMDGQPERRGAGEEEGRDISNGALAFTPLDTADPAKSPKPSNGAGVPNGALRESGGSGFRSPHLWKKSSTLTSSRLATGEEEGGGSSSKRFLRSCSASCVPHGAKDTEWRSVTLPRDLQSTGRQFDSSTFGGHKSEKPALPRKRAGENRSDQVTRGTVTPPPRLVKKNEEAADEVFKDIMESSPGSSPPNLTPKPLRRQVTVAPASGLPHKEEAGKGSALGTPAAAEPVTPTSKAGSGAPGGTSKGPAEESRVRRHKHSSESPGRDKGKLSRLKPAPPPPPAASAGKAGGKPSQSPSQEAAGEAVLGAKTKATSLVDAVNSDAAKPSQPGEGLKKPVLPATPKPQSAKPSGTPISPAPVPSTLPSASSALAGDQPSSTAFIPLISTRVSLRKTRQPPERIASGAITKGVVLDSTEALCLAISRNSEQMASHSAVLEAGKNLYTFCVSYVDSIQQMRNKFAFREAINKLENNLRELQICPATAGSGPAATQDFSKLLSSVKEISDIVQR

With `CC(=O)c1cnc2ccc(-c3cc(Cl)c(O)c(Cl)c3)nc2c1N[C@H]1CC[C@H](CN(C)C)CC1`, the Kd (in general, the free concentration of one partner at which half of the binding sites on the other are occupied at equilibrium, for simple one-to-one binding) at Aurora kinase B is 0.126 µM (active); in assay [1], > 30 µM (inactive); in [2], > 30 µM (inactive); at LIM domain kinase 2, > 30 µM (inactive); in assay [3], > 30 µM (inactive); in assay [4], 0.251 µM (active). For the same compound, the Kd is > 30 µM (inactive) at Actin-related protein 2; 0.28 µM (active) in [5]; 1.09 µM (active) in [6]; > 30 µM (inactive) in [7]; > 30 µM (inactive) in assay [8]; 0.244 µM (active) in assay [9].
For `C=CC(=O)N1CCC[C@H](n2c(=O)n(-c3ccc(Oc4ccccc4)cc3)c3c(N)ncnc32)C1`, the Kd (on Aurora kinase B; in assay [10]; in [1]; in [2]; in [11]; on LIM domain kinase 2) was > 30 µM (inactive) each time. Besides, the Kd (in assay [3]; in [12]; in assay [4]; on Actin-related protein 2; in [5]; in assay [6]) was > 30 µM (inactive) throughout. For the same compound, the Kd in assay [7], in assay [8], in [9] and in assay [13] was > 30 µM (inactive) each time.
`CC(C)(C)c1nc(-c2cccc(NS(=O)(=O)c3c(F)cccc3F)c2F)c(-c2ccnc(N)n2)s1` [DABRAFENIB]: the Kd on Aurora kinase B was > 30 µM (inactive); in [10] it was 0.52 µM (active); in assay [1], > 30 µM (inactive); in assay [2], > 30 µM (inactive); in [11] it was 1.82 µM (active); on LIM domain kinase 2 it was 0.082 µM (active). In addition, the Kd (in assay [3]; in assay [12]; at Actin-related protein 2; in [6]; in assay [7]; in [8]) was > 30 µM (inactive) throughout. The Kd in assay [9], in assay [14] and in [13] was > 30 µM (inactive) each time.
Consider `Cn1cc(C2=C(c3cn(C4CCN(Cc5ccccn5)CC4)c4ccccc34)C(=O)NC2=O)c2ccccc21` [ENZASTAURIN], for which the Kd (in assay [2]; in [3]; on Actin-related protein 2; in [6]) was > 30 µM (inactive) throughout.
For the compound `Cc1nc2cc(-n3ncc(C(=O)c4cc5ccccc5[nH]4)c3N)ccc2[nH]1` [FGFR INHIBITOR DEBIO 1347], the Kd (on Aurora kinase B; in assay [10]; in [1]; in assay [2]; in [11]; at LIM domain kinase 2) was > 30 µM (inactive) each time. For the same compound, the Kd (in [3]; in assay [12]; in assay [4]; at Actin-related protein 2; in assay [5]; in [6]) was > 30 µM (inactive) each time. Further, the Kd in assay [7], in assay [8], in [9] and in assay [13] was > 30 µM (inactive) throughout.
As to `O=C(Nc1nc2cccc(-c3ccc(CN4CCS(=O)(=O)CC4)cc3)n2n1)C1CC1` [FILGOTINIB], the Kd (at Aurora kinase B; in [10]; in [1]; in [2]; in assay [11]; at LIM domain kinase 2) was > 30 µM (inactive) in each case. In addition, the Kd was > 30 µM (inactive) in [3]; 4.99 µM (active) in assay [12]; > 30 µM (inactive) in [4]; > 30 µM (inactive) at Actin-related protein 2; > 30 µM (inactive) in [5]; > 30 µM (inactive) in assay [6]. The Kd in assay [7], in assay [9] and in [13] was > 30 µM (inactive) each time.
Consider `Cc1[nH]c(/C=C2\C(=O)Nc3ccccc32)c(C)c1CCC(=O)O` [ORANTINIB], for which the Kd in [2] was > 30 µM (inactive); on LIM domain kinase 2, > 30 µM (inactive); in [3], > 30 µM (inactive); in [12], 1.17 µM (active); at Actin-related protein 2, > 30 µM (inactive); in assay [6] it was > 30 µM (inactive). Further, the Kd in assay [7], in assay [8], in assay [9] and in [14] was > 30 µM (inactive) in each case.
For the compound `CCOc1cc2ncc(C#N)c(Nc3ccc(F)c(Cl)c3)c2cc1NC(=O)/C=C/CN(C)C` [PELITINIB], the Kd (on Aurora kinase B; in [10]; in assay [1]; in [2]; in [11]; at LIM domain kinase 2) was > 30 µM (inactive) in each case. The Kd is > 30 µM (inactive) in assay [3]; > 30 µM (inactive) in [12]; > 30 µM (inactive) in assay [4]; > 30 µM (inactive) at Actin-related protein 2; 10.5 µM (active) in assay [6]; > 30 µM (inactive) in assay [7]. Also, the Kd in assay [8], in assay [9], in assay [14] and in assay [13] was > 30 µM (inactive) in each case.
For `CCCCCCCCCCCCCCCCCCOP(=O)([O-])OC1CC[N+](C)(C)CC1` [PERIFOSINE], the Kd (on Aurora kinase B; in [10]; in [1]; in assay [2]; in assay [11]; at LIM domain kinase 2) was > 30 µM (inactive) each time. In addition, the Kd (in [3]; in assay [12]; in assay [4]; on Actin-related protein 2; in assay [5]; in [6]) was > 30 µM (inactive) each time. For the same compound, the Kd in [7], in [8], in assay [9] and in assay [13] was > 30 µM (inactive) each time.
As for `N#CC[C@H](C1CCCC1)n1cc(-c2ncnc3[nH]ccc23)cn1` [RUXOLITINIB], the Kd (in assay [2]; in [3]; on Actin-related protein 2; in [6]; in assay [14]) was > 30 µM (inactive) throughout.
